Experiments:
human lyase = target: T1, human lyase (Homo sapiens, UniProt P05093); test: Inhibition of human steroid C17,20 lyase (testicular microsomes); type: biochemical
T1 construct: microsomes were isolated from human, cynomolgus monkey, dog, rat or athymic nude mouse testicular tissue; from tissue; host or cells: human testis microsomes (therapeutic orchiectomies)
T1 sequence (P05093 1-508): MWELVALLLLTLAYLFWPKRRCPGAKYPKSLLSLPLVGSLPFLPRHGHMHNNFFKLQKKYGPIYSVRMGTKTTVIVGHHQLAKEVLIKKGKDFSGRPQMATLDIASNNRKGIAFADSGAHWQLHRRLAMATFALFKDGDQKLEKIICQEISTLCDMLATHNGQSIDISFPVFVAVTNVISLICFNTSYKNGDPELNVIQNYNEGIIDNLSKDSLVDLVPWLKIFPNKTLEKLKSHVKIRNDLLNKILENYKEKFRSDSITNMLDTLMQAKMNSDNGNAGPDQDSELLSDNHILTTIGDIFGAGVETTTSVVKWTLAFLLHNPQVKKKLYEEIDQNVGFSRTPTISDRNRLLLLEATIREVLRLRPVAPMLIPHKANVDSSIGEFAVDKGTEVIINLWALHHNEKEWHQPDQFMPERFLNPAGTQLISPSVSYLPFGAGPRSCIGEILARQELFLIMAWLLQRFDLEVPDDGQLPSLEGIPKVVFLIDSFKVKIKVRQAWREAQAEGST
Experimental: The activity of the present compounds as inhibitors of steroid C17,20 lyase was established using microsomal preparations of the steroid C17,20 lyase enzyme from human or laboratory animal testes. Human testes used for this purpose were obtained from therapeutic orchiectomies. Specifically, microsomes were isolated from human, cynomolgus monkey, dog, rat or athymic nude mouse testicular tissue. The compound to be tested was dissolved in dimethyl sulfoxide and diluted in 0.05M potassium phosphate buffer to give the desired concentrations of the test compound. The potassium phosphate buffer was at pH 7.4 for the human, monkey and dog lyase assays and at pH 7.2 for the rat and athymic nude mouse lyase assays. Assays also contained 1 mM NADPH, 5 mM glucose-6-phosphate, 1 IU/ml glucose-6-phosphate dehydrogenase (an NADPH regenerating system) and microsomal protein in a total volume of 0.2 mL. Control assays contained all components including dimethyl sulfoxide, but with no test compound. All assays were performed in duplicate. For determination of time dependent C17,20 lyase inactivation, the test compound was incubated with 20 to 60 μg/ml microsomal protein, buffer, and the NADPH regenerating system described above at 34° C. for 0 or 40 minutes. Aliquots (180 μl) were then removed and assayed for enzyme activity by addition to tritiated steroid substrate plus unlabeled steroid substrate to give a 200 μl total assay volume, and were subsequently incubated at 34° C. for 6 minutes. For determination of reversible inhibition by the test compound, the reaction was initiated by addition of substrate. The radiolabeled substrate used for human, cynomolgus monkey and dog lyase was [7-^3 H]-17α-hydroxypregnenolone, 11.2 Ci/mmole, 0.2 μCi total activity per assay. Unlabeled 17α-hydroxypregnenolone was added to give a total concentration of 1.0 μM or 0.3 μM for the human and monkey enzymes, and 0.08 μM for the canine enzyme. […] The radiolabeled substrate used for the rodent enzymes were [1,2-^3 H]-17α-hydroxyprogesterone (40-57 Ci/mmol; 0.2 μCi per assay). Unlabeled 17α-hydroxyprogesterone was added to give a total concentration of 0.1 μM for the rat enzyme (Km =0.1 μM) and 0.03 μM (Km =0.03 μM) for the athymic nude mouse enzyme. The total assay volume was 200 μl. The complete assay was incubated at 34° C. for 6 minutes. Each reaction was stopped by the addition of 5 ml of chloroform:methanol (2:1). Carrier steroids representing substrate and products and 0.8 ml of water were also added at this time. The carrier steroids for the human, monkey and dog lyase assays were 17α-hydroxypregnenolone, dehydroepiandrosterone and androstenediol. Carrier steroids for the rodent lyase assays were 17α-hydroxyprogesterone, androstenedione, and testosterone. The steroids were extracted by the method of Moore and Wilson (Methods in Enzymol., eds. O'Malley, B. W. and Hardman, J. G. 36, 1975, p. 466-474), the organic phase containing the steroids was evaporated using nitrogen gas, the residues dissolved in 18% tetrahydrofuran (v/v) in hexane, and the steroids were separated by HPLC on a Si60 (5 um) column (250×4 mm) using a gradient of 18-22% tetrahydrofuran (v/v) in hexane. Radioactivity in the steroid peaks was measured by a Radiomatic Model HS Flo-One detector.
The enzyme activity for each incubate was calculated from the percent conversion of substrate to products, and the results were expressed as percent inhibition of control. […] The Ki and kinact for time dependent inhibitors were determined by graphical analysis of Kitz-Wilson plots. When the compounds of the present invention were tested in the above procedure using human lyase, the following results were observed: […]

[1] = system: human prostatic tumor xenographs (PC-82); test: Inhibition of human prostatic tumor growth (PC-82 xenografts in athymic mice); type: in vivo
Experimental: In this model, human prostatic tumor xenographs (PC-82) are grown in athymic mice. The tumors are serially transplantable, androgen-responsive, slow-growing (i.e. 20-30 days for tumor volume to double) and are moderately differentiated human prostatic adenocarcinoma. These tumors will regress following androgen ablation with a half-life of 18 days (van Weerden, W. M. et al., Prostate 23:149-164 (1993).
The above tumor model of androgen-dependent human prostatic cancer was utilized to evaluate 4-amino-17β-(cyclopropyloxy)androst-4-en-3-one for inhibition of prostatic tumor growth following daily oral treatment at 30 and 100 mg/kg/day (See Table 2). Two control groups were tested, including one which received only the delivery vehicle and another which were bilaterally castrated. Tumor volumes were measured three times per week using a digital caliper using the formula: V (mm^3)=d1 ×(d2)^2 /2 were d1 is the length and d2 the width. The relative percent change in tumor volume is based on the mean tumor volume of the vehicle control groups at week 0 being set equal to 100%.

rat lyase = test: Inhibition of rat steroid C17,20 lyase (testicular microsomes); type: biochemical; settings: rat; 0.1 μM; preincubation 40 min
Experimental: (§1) The activity of the present compounds as inhibitors of steroid C17,20 lyase was established using microsomal preparations of the steroid C17,20 lyase enzyme from human or laboratory animal testes. Human testes used for this purpose were obtained from therapeutic orchiectomies. Specifically, microsomes were isolated from human, cynomolgus monkey, dog, rat or athymic nude mouse testicular tissue. The compound to be tested was dissolved in dimethyl sulfoxide and diluted in 0.05M potassium phosphate buffer to give the desired concentrations of the test compound. The potassium phosphate buffer was at pH 7.4 for the human, monkey and dog lyase assays and at pH 7.2 for the rat and athymic nude mouse lyase assays. Assays also contained 1 mM NADPH, 5 mM glucose-6-phosphate, 1 IU/ml glucose-6-phosphate dehydrogenase (an NADPH regenerating system) and microsomal protein in a total volume of 0.2 mL. Control assays contained all components including dimethyl sulfoxide, but with no test compound. All assays were performed in duplicate. […] Radioactivity in the steroid peaks was measured by a Radiomatic Model HS Flo-One detector.
(§2) The enzyme activity for each incubate was calculated from the percent conversion of substrate to products, and the results were expressed as percent inhibition of control. […] The Ki and kinact for time dependent inhibitors were determined by graphical analysis of Kitz-Wilson plots. […]

canine lyase = test: Inhibition of canine steroid C17,20 lyase (testicular microsomes); type: biochemical, dog; settings: canine; 1 μM; preincubation 40 min
Experimental: as §1, §2

nude mouse lyase = test: Inhibition of athymic nude mouse steroid C17,20 lyase (testicular microsomes); type: biochemical; settings: nude mouse; 0.01 μM; preincubation 40 min
Experimental: as §1, §2

Row | SMILES | inhibition at 1 µM (human lyase; preincubation 0 min) [%] | inhibition at 1 µM (human lyase; preincubation 40 min) [%] | inhibition at 10 µM (human lyase; preincubation 0 min) [%] | inhibition at 10 µM (human lyase; preincubation 40 min) [%] | Relative percent tumor volume compared to vehicle control at beginning of timed period ([1]; 30 mg/kg/day oral, 0 weeks) [%] | Tumor volume ([1]; 30 mg/kg/day oral, 0 weeks) [mm^3] | Relative percent tumor volume compared to vehicle control at beginning of timed period ([1]; 30 mg/kg/day oral, +2 weeks) [%] | Tumor volume ([1]; 30 mg/kg/day oral, +2 weeks) [mm^3] | Relative percent tumor volume compared to vehicle control at beginning of timed period ([1]; 30 mg/kg/day oral, +4 weeks) [%] | Tumor volume ([1]; 30 mg/kg/day oral, +4 weeks) [mm^3] | Relative percent tumor volume compared to vehicle control at beginning of timed period ([1]; 100 mg/kg/day oral, 0 weeks) [%] | Tumor volume ([1]; 100 mg/kg/day oral, 0 weeks) [mm^3] | Relative percent tumor volume compared to vehicle control at beginning of timed period ([1]; 100 mg/kg/day oral, +2 weeks) [%] | Tumor volume ([1]; 100 mg/kg/day oral, +2 weeks) [mm^3] | Relative percent tumor volume compared to vehicle control at beginning of timed period ([1]; 100 mg/kg/day oral, +4 weeks) [%] | Tumor volume ([1]; 100 mg/kg/day oral, +4 weeks) [mm^3] | Inhibition of human prostatic tumor growth (in words) ([1]; daily oral treatment) | % Inhibition (rat lyase) [%] | % Inhibition (canine lyase) [%] | % Inhibition (nude mouse lyase) [%]
1 | C[C@]12CC[C@H]3[C@@H](C=CC4=C(N)C(=O)CC[C@@]43C)[C@@H]1CC[C@@H]2OC1CC1 [Compound 1, 4-Amino-17β-(cyclopropyloxy)androsta-4,6-dien-3-one] | 69 | 84 | 95 | 98 | – | – | – | – | – | – | – | – | – | – | – | – | – | – | – | –
2 | C[C@]12CC[C@H]3[C@@H](CCC4=C(N)C(=O)CC[C@@]43C)[C@@H]1CC[C@@H]2OC1CC1 [Compound 2, 4-Amino-17β-(cyclopropyloxy)androst-4-en-3-one] | 79 | 86 | 96 | 99 | 105 | 541 ± 71 | 150 | 771 ± 108 | 253 | 1305 ± 309 | 83 | 426 ± 49 | 117 | 601 ± 66 | 163 | 840 ± 86 | prolonged inhibition of human prostatic tumor growth | 70 | 57 | 84

Reference: patent publication US5486511A, “4-amino-17β-(cyclopropyloxy)androst-4-en-3-one, 4-amino-17β-(cyclopropylamino)androst-4-en-3-one and related compounds as C17-20 lyase and 5α-reductase” (Merrell Dow Pharmaceuticals Inc., priority 1994, dated 1996)
